In ChEMBL document CHEMBL3751753, “Synthesis and biological evaluation of 4-[(benzimidazol-1-yl) methyl]biphenyl-2-amides as dual angiotensin II and endothelin A receptor antagonists” (Medchemcomm, 2015):
Calls of active or inactive are those of the source. The calls are words filed in the database; no cut-off is given here.

Key:
[1] = biological target: T1, Type-1 angiotensin II receptor (Homo sapiens, UniProt P30556); assay: Displacement of 125I-labelled Sar1-Ile8-angiotensin-2 from human AT1 receptor
T1 sequence (P30556 whole entry): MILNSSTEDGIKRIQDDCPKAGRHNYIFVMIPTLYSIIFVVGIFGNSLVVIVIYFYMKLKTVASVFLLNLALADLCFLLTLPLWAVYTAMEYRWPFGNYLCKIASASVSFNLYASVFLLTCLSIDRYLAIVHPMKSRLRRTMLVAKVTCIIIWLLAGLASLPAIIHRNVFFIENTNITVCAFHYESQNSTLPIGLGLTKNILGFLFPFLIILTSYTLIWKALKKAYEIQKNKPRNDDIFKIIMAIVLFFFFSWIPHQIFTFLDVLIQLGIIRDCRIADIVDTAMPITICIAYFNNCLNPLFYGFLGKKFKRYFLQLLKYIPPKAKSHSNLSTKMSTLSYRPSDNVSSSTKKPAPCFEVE

Endothelin-1 receptor = biological target: T2, Endothelin-1 receptor (Homo sapiens, UniProt P25101); assay: Displacement of 125I-labelled endothelin-1 from human ETA receptor expressed in CHOK1 cell membranes; set-up: species or system CHO-K1
T2 sequence (P25101 whole entry): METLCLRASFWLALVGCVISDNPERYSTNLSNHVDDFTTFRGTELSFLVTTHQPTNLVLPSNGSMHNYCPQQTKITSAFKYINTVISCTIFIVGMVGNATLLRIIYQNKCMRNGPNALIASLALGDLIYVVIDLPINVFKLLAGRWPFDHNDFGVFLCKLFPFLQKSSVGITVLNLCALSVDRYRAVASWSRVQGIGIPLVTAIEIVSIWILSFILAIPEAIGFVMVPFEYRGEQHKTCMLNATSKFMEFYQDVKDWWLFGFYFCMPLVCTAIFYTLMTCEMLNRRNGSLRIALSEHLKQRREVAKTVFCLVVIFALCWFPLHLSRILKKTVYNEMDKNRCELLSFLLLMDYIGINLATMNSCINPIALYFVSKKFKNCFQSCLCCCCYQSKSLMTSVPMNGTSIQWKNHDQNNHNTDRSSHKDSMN

Rattus norvegicus [2] = assay: Antihypertensive activity in spontaneous hypertensive rat assessed as mean blood pressure at 20 mg/kg, po after 24 hrs; assay type: functional, organism-based
Rattus norvegicus [3] = assay: Antihypertensive activity in spontaneous hypertensive rat assessed as mean blood pressure at 20 mg/kg, po after 4 hrs; assay type: functional
Rattus norvegicus [4] = assay: Antihypertensive activity in spontaneous hypertensive rat assessed as time duration of lowering mean blood pressure >20 mmHg at 20 mg/kg, po; assay type: functional
Rattus norvegicus [5] = assay: Antihypertensive activity in spontaneous hypertensive rat assessed as heart rate at 20 mg/kg, po after 1 to 24 hrs; assay type: functional, organism-based
Rattus norvegicus [6] = assay: Antihypertensive activity in spontaneous hypertensive rat assessed as mean blood pressure at 20 mg/kg, po after 6 hrs; assay type: functional

Q: For `CCCc1nc2c(C)cc(C(=O)NC(C)C)cc2n1Cc1ccc(-c2ccccc2C(=O)Nc2nnn[nH]2)cc1`, which IC50 [1] is on record?
A: 161 nM

Q: What about the IC50 (Endothelin-1 receptor) of the same compound?
A: > 20000 nM

Q: Which IC50 [1] does the source give for `CCCc1nc2c(C)cc(C(=O)Nc3ccccc3)cc2n1Cc1ccc(-c2ccccc2C(=O)Nc2nnn[nH]2)cc1` here?
A: 73.7 nM

Q: And the IC50 (Endothelin-1 receptor)?
A: 14000 nM

Q: Which IC50 [1] does the source give for `CCCc1nc2c(C)cc(C(=O)NCCN3CCOCC3)cc2n1Cc1ccc(-c2ccccc2C(=O)Nc2nnn[nH]2)cc1` here?
A: 44 nM

Q: What about the IC50 (Endothelin-1 receptor) of the same compound?
A: 165 nM

Q: How did the IC50 [1] turn out when `CCCc1nc2c(C)cc(C(=O)NC(C)(C)C)cc2n1Cc1ccc(-c2ccccc2C(=O)Nc2nnn[nH]2)cc1` was run?
A: 390 nM

Q: What about the IC50 (Endothelin-1 receptor) of the same compound?
A: > 20000 nM

Q: `CCCc1nc2c(C)cc(C(=O)NCCN3CCN(C)CC3)cc2n1Cc1ccc(-c2ccccc2C(=O)Nc2nnn[nH]2)cc1` was tested. Which IC50 [1] did it give?
A: 53.5 nM

Q: What about the IC50 (Endothelin-1 receptor) of the same compound?
A: 9100 nM

Q: For `CCCNC(=O)c1cc(C)c2nc(CCC)n(Cc3ccc(-c4ccccc4C(=O)Nc4nnn[nH]4)cc3)c2c1`, which IC50 [1] is on record?
A: 363 nM

Q: And the IC50 (Endothelin-1 receptor)?
A: > 20000 nM

Q: `CCCc1nc2c(C)cc(C(=O)NCCc3cccc(OC)c3)cc2n1Cc1ccc(-c2ccccc2C(=O)Nc2nnn[nH]2)cc1` was tested. Which IC50 [1] did it give?
A: 36.9 nM

Q: And the IC50 (Endothelin-1 receptor)?
A: > 20000 nM

Q: Which IC50 [1] does the source give for `CCCc1nc2c(C)cc(C(=O)NCc3ccc(OC)c(OC)c3)cc2n1Cc1ccc(-c2ccccc2C(=O)Nc2nnn[nH]2)cc1` here?
A: 32.9 nM

Q: And the IC50 (Endothelin-1 receptor)?
A: 10000 nM

Q: For `CCCCNC(=O)c1cc(C)c2nc(CCC)n(Cc3ccc(-c4ccccc4C(=O)Nc4nnn[nH]4)cc3)c2c1`, which IC50 [1] is on record?
A: 439 nM

Q: What about the IC50 (Endothelin-1 receptor) of the same compound?
A: > 20000 nM

Q: What does the source list for `CCCc1nc2c(C)cc(C(=O)Nc3ccccc3OC)cc2n1Cc1ccc(-c2ccccc2C(=O)Nc2nnn[nH]2)cc1`?
A: IC50 [1]: 347 nM; IC50 (Endothelin-1 receptor): 886 nM

Q: For `CCCc1nc2c(C)cc(C(=O)NCCc3ccc(F)cc3)cc2n1Cc1ccc(-c2ccccc2C(=O)Nc2nnn[nH]2)cc1`, which IC50 [1] is on record?
A: 140 nM

Q: What about the IC50 (Endothelin-1 receptor) of the same compound?
A: > 20000 nM

Q: Which results are given for `CCCc1nc2c(C)cc(C(=O)NCCN3CCCCC3)cc2n1Cc1ccc(-c2ccccc2C(=O)Nc2nnn[nH]2)cc1`?
A: IC50 [1]: 67.5 nM; IC50 (Endothelin-1 receptor): > 20000 nM

Q: With `CCCCC1=NC2(CCCC2)C(=O)N1Cc1ccc(-c2ccccc2-c2nnn[nH]2)cc1` [IRBESARTAN] as the compound, how does the Activity (Rattus norvegicus [2]) read?
A: Active

Q: And the Activity (Rattus norvegicus [3])?
A: 20 mmHg

Q: And the Time (Rattus norvegicus [4])?
A: 1 h

Q: And the Activity (Rattus norvegicus [5])?
A: Active

Q: How did the IC50 [1] turn out when `CCCc1nc2c(C)cc(C(=O)NCCN3CCCC3)cc2n1Cc1ccc(-c2ccccc2C(=O)Nc2nnn[nH]2)cc1` was run?
A: 69.4 nM

Q: What about the IC50 (Endothelin-1 receptor) of the same compound?
A: 7100 nM

Q: With `CCCc1nc2c(C)cc(C(=O)NCc3ccc(OC)cc3)cc2n1Cc1ccc(-c2ccccc2C(=O)Nc2nnn[nH]2)cc1` as the compound, how does the IC50 [1] read?
A: 550 nM

Q: What about the IC50 (Endothelin-1 receptor) of the same compound?
A: > 20000 nM

Q: How did the IC50 [1] turn out when `CCCc1nc2c(C)cc(C(=O)NCc3ccccc3)cc2n1Cc1ccc(-c2ccccc2C(=O)Nc2nnn[nH]2)cc1` was run?
A: 82 nM

Q: What about the IC50 (Endothelin-1 receptor) of the same compound?
A: 10 nM

Q: Which results are given for `CCCc1nc2c(C)cc(C(=O)NCCc3ccc(OC)cc3)cc2n1Cc1ccc(-c2ccccc2C(=O)Nc2nnn[nH]2)cc1`?
A: IC50 [1]: 87.8 nM; IC50 (Endothelin-1 receptor): 13000 nM

Q: Which results are given for `CCCc1nc2c(C)cc(C(=O)NCCc3ccccc3F)cc2n1Cc1ccc(-c2ccccc2C(=O)Nc2nnn[nH]2)cc1`?
A: IC50 [1]: 90 nM; IC50 (Endothelin-1 receptor): 11000 nM

Q: What does the source list for `CCCc1nc2c(C)cc(C(=O)NCCc3ccccc3)cc2n1Cc1ccc(-c2ccccc2C(=O)Nc2nnn[nH]2)cc1`?
A: Activity (Rattus norvegicus [2]): Active; IC50 [1]: 3.9 nM; IC50 (Endothelin-1 receptor): 126 nM; Time (Rattus norvegicus [4]): 4 h; Activity (Rattus norvegicus [5]): Active; Activity (Rattus norvegicus [6]): 24 mmHg

Q: For `CCCc1nc2c(C)cc(C(=O)NCCc3ccc(OC)c(OC)c3)cc2n1Cc1ccc(-c2ccccc2C(=O)Nc2nnn[nH]2)cc1`, which IC50 [1] is on record?
A: 93 nM

Q: And the IC50 (Endothelin-1 receptor)?
A: > 20000 nM

Q: For `CCCc1nc2c(C)cc(C(=O)NCCc3ccccc3OC)cc2n1Cc1ccc(-c2ccccc2C(=O)Nc2nnn[nH]2)cc1`, which IC50 [1] is on record?
A: 26.1 nM

Q: And the IC50 (Endothelin-1 receptor)?
A: 7000 nM

Q: What does the source list for `CCCc1nc2c(C)cc(C(=O)NCc3cccc(OC)c3)cc2n1Cc1ccc(-c2ccccc2C(=O)Nc2nnn[nH]2)cc1`?
A: IC50 [1]: 53.9 nM; IC50 (Endothelin-1 receptor): 625 nM

Q: Which results are given for `CCCc1nc2c(C)cc(C(=O)NCCc3cc(OC)ccc3OC)cc2n1Cc1ccc(-c2ccccc2C(=O)Nc2nnn[nH]2)cc1`?
A: IC50 [1]: 30.7 nM; IC50 (Endothelin-1 receptor): > 20000 nM

Q: Which results are given for `CCCc1nc2c(C)cc(C(=O)NCc3ccccc3OC)cc2n1Cc1ccc(-c2ccccc2C(=O)Nc2nnn[nH]2)cc1`?
A: IC50 [1]: 73.3 nM; IC50 (Endothelin-1 receptor): 7200 nM
